Results on eleven compounds are retold here after patent US20240376097A1, “BCL-2 Inhibitor” (BeiGene Ltd., priority 2020, published 2024).

Format in all cases: binding
Test [1] concerns the target Recombinant human Bcl-2 protein (Homo sapiens (Human), UniProt P10415). The test can be described thus: Bcl-2 TR-FRET Assay. On the procedure: Biological Example: Bcl-2 TR-FRET Assay
Compounds disclosed herein were tested for blocking of Bcl-2 protein with its ligand in an assay based on Time-Resolved Fluorescence Resonance Energy Transfer (TR-FRET) methodology. Recombinant human 0.05 nM Bcl-2 protein was pre-incubated with a serial dilution of compounds disclosed herein (top final concentration is 1 uM or 0.1 uM or 0.02 uM or 0.01 uM, 10 points) at room temperature for 0.5 hour in an assay buffer containing 20 mM potassium phosphate buffer, pH 7.5, 50 mM NaCl. 1 mM EDTA, 0.05% Tween-20, 0.01% BSA. Then the FITC labeled Bak peptide Ac-GQVGRQLAIIGDK(FITC)INR-amide (0.5 nM) and MAb Anti 6His Tb cryptate Gold were added to plate and further incubated at room temperature for 1 hour. The TR-FRET signals (337 nm-520 nm-490 nm) were read on BMG PHERAstar FSX instrument. The inhibition percentage of Bcl-2 interaction with its ligand in presence of increasing concentrations of compounds was calculated based on the TR-FRET signals. The IC50 for each compound was derived from fitting the data to the four-parameter logistic equation by Graphpad Prism software or Dotmatics.
In general terms: TR-FRET usually uses a lanthanide donor and a delayed reading to cut background.

The target of test [2] is recombinant human Bcl-2-G101V protein (Homo sapiens (Human), UniProt P10415, G101V). The test can be described thus: Bcl-2-G101V TR-FRET Assay. As to conditions: Bcl-2 G101V mutant, TR-FRET; read-out: Biochemical assay (IC50, nM) Bcl-2 G101V. On the procedure: (§1) Biological Example: Bcl-2-G101V TR-FRET Assay
(§2) […]. The TR-FRET signals (ex337 nm, em490 nm/520 nm) were read on BMG PHERAstar FSX instrument. The inhibition percentage of Bcl-2-G101V interaction with its ligand in presence of increasing concentrations of compounds was calculated based on the ratio of fluorescence at 490 nm to that at 520 nm. The IC50 for each compound was derived from fitting the data to the four-parameter logistic equation by Graphpad Prism software or Dotmatics.

Test [3] deals with recombinant human Bcl-2-G101V protein. Description: Bcl-2-G101V TR-FRET Assay. As to conditions: ratio of biochemical IC50 Bcl-2 G101V / Bcl-2 WT. On the procedure:
as §1, §2

In test [4] the target is recombinant human Bcl-2 D103Y protein (Homo sapiens (Human), UniProt P10415, D103Y). Description: Bcl-2-D103Y Biochemical Assay (TR-FRET). As to conditions: for IC50: TR-FRET, FITC labeled Bak peptide; for Ratio of Bcl-2 D103Y/Bcl-2 WT: ratio of IC50. The method, then:
Biological Example: Bcl-2-D103Y Biochemical Assay
[…]. The TR-FRET signals (ex337 nm, em490 nm/520 nm) were read on BMG PHERAstar FSX instrument. The inhibition percentage of Bcl-2 D103Y interaction with its ligand in presence of increasing concentrations of compounds was calculated based on the ratio of fluorescence at 490 nm to that at 520 nm. The IC50 for each compound was derived from fitting the data to the four-parameter logistic equation by Dotmatics.

The mark [5] stands for this setting: Bcl-2 wild type, TR-FRET, read-out: Biochemical assay (IC50, nM) Bcl-2 WT.
Setting [6] is: wild type Bcl-2, unit inferred, read-out: Bcl-2 WT.

Like-named read-outs stand apart in the source and are kept apart here.

For `CC(C)c1ccccc1C1CN(Cc2ccc(OC(F)(F)F)cc2)CCN1C1CC2(CCN(c3ccc(C(=O)NS(=O)(=O)c4ccc(NC[C@H]5CC[C@](C)(O)CC5)c([N+](=O)[O-])c4)c(Oc4cnc5[nH]ccc5c4)c3)CC2)C1` (stereo partly drawn) [Example 39, 2-((1H-pyrrolo[2,3-b]pyridin-5-yl)oxy)-N-((4-((((1r,4r)-4-hydroxy-4-methylcyclohexyl)methyl)amino)-3-nitrophenyl)sulfonyl)-4-(2-(2-(2-isopropylphenyl)-4-(4-(trifluoromethoxy)benzyl)piperazin-1-yl)-7-azaspiro[3.5]nonan-7-yl)benzamide], the IC50 in test [1] (setting [5]) came to 1.1 nM; in test [1] (setting [6]), 1.1 nM; in test [2], 6.7 nM; in test [4], 3.8 nM. The “Ratio of Bcl-2 G101V/WT” value in test [3] was 6.1. In test [4], the “Ratio of Bcl-2 D103Y/Bcl-2 WT” value was 3.5.

Take `COc1ccc(CN2CCN(C3CC4(CCN(c5ccc(C(=O)NS(=O)(=O)c6ccc(NCC7(F)CCC(C)(O)CC7)c([N+](=O)[O-])c6)c(Oc6cnc7[nH]ccc7c6)c5)CC4)C3)[C@H](c3ccccc3C(C)C)C2)cc1` (stereo partly drawn) [Example 226, (R)-2-((1H-pyrrolo[2,3-b]pyridin-5-yl)oxy)-N-((4-(((1-fluoro-4-hydroxy-4-methylcyclohexyl)methyl)amino)-3-nitrophenyl)sulfonyl)-4-(2-(2-(2-isopropylphenyl)-4-(4-methoxybenzyl)piperazin-1-yl)-7-azaspiro[3.5]nonan-7-yl) benzamide]: the IC50 stood at 0.17 nM in test [1] (setting [5]), 0.17 nM in test [1] (setting [6]), 0.64 nM in test [2] and 0.16 nM in test [4]. Besides, the “Ratio of Bcl-2 G101V/WT” value in test [3] is listed as 3.9. The “Ratio of Bcl-2 D103Y/Bcl-2 WT” value in test [4] is 1.

For the compound `COc1cc(CN2CCN(C3CC4(CCN(c5ccc(C(=O)NS(=O)(=O)c6ccc(NC[C@H]7CC[C@](C)(O)CC7)c([N+](=O)[O-])c6)c(Oc6cnc7[nH]ccc7c6)c5)CC4)C3)C(c3ccccc3C(C)C)C2)cc(C(F)(F)F)c1` (stereo partly drawn) [Example 227, 2-((1H-pyrrolo[2,3-b]pyridin-5-yl)oxy)-N-((4-((((1r,4r)-4-hydroxy-4-methylcyclohexyl)methyl)amino)-3-nitrophenyl)sulfonyl)-4-(2-(2-(2-isopropylphenyl)-4-(3-methoxy-5-(trifluoromethyl)benzyl)piperazin-1-yl)-7-azaspiro[3.5]nonan-7-yl) benzamide], the IC50 worked out at 2 nM in test [1] (setting [5]) and 6.4 nM in test [2]. The “Ratio of Bcl-2 G101V/WT” value in test [3] was found to be 3.2.

With `COc1ccc(CN2CCN(C3CC4(CCN(c5ccc(C(=O)NS(=O)(=O)c6ccc(NC[C@H]7CC[C@](C)(O)CC7)c([N+](=O)[O-])c6)c(Oc6cnc7[nH]ccc7c6)c5)CC4)C3)C(c3cc(Cl)ccc3C(C)C)C2)cc1` (stereo partly drawn) [Example 247, 2-((1H-pyrrolo[2,3-b]pyridin-5-yl)oxy)-4-(2-(2-(5-chloro-2-isopropylphenyl)-4-(4-methoxybenzyl)piperazin-1-yl)-7-azaspiro[3.5]nonan-7-yl)-N-((4-((((1r,4r)-4-hydroxy-4-methylcyclohexyl)methyl)amino)-3-nitrophenyl)sulfonyl)benzamide], the IC50 in test [1] (setting [5]) came out at 0.8 nM; in test [2] it was 3.3 nM. Further, the “Ratio of Bcl-2 G101V/WT” value in test [3] came to 4.2.

On to `COc1cc(CN2CCN(C3CC4(CCN(c5ccc(C(=O)NS(=O)(=O)c6ccc(NC[C@H]7CC[C@](C)(O)CC7)c([N+](=O)[O-])c6)c(Oc6cnc7[nH]cc(F)c7c6)c5)CC4)C3)[C@H](c3ccccc3C(C)C)C2)ccc1C(F)(F)F` [Example 279], for which the IC50 in test [1] (setting [5]) is 2 nM; in test [2] it was 6.3 nM. The “Ratio of Bcl-2 G101V/WT” value in test [3] is 3.2.

On to `COc1cc(CN2CCN(C3CC4(CCN(c5ccc(C(=O)NS(=O)(=O)c6ccc(NC[C@H]7CC[C@](C)(O)CC7)c([N+](=O)[O-])c6)c(Oc6cnc7[nH]ccc7c6)c5)CC4)C3)[C@H](c3ccccc3C(C)C)C2)cc2c1OCC2(C)C` [Example 286, 2-((1H-pyrrolo[2,3-b]pyridin-5-yl)oxy)-N-((4-((((1r,4r)-4-hydroxy-4-methylcyclohexyl)methyl)amino)-3-nitrophenyl)sulfonyl)-4-(2-((R)-2-(2-isopropylphenyl)-4-((7-methoxy-3,3-dimethyl-2,3-dihydrobenzofuran-5-yl)methyl)piperazin-1-yl)-7-azaspiro[3.5]nonan-7-yl)benzamide], for which the IC50 in test [1] (setting [5]) came to 0.1 nM; in test [1] (setting [6]), 0.1 nM; in test [2], 0.48 nM; in test [4], 0.19 nM. Besides, the “Ratio of Bcl-2 G101V/WT” value in test [3] is given as 4.8. The “Ratio of Bcl-2 D103Y/Bcl-2 WT” value in test [4] is given as 1.9.

For the compound `COc1cc(CN2CCN(C3CC4(C3)CN(c3ccc(C(=O)NS(=O)(=O)c5ccc(NC[C@H]6CC[C@](C)(O)CC6)c([N+](=O)[O-])c5)c(Oc5cnc6[nH]cc(F)c6c5)c3)C4)[C@H](c3ccccc3C(C)C)C2)ccc1C(F)(F)F` [Example 289, 2-((3-fluoro-1H-pyrrolo[2,3-b]pyridin-5-yl)oxy)-N-((4-((((1r,4r)-4-hydroxy-4-methylcyclohexyl)methyl)amino)-3-nitrophenyl)sulfonyl)-4-(6-((R)-2-(2-isopropylphenyl)-4-(3-methoxy-4-(trifluoromethyl)benzyl)piperazin-1-yl)-2-azaspiro[3.3]heptan-2-yl) benzamide], the IC50 in test [1] (setting [5]) came to 1.7 nM; in test [2], 4 nM. Besides, the “Ratio of Bcl-2 G101V/WT” value in test [3] amounted to 2.3.

As to `COc1cc(CN2CCN(C3CC4(CCN(c5ccc(C(=O)NS(=O)(=O)c6ccc(NC[C@H]7CC[C@](C)(O)CC7)c([N+](=O)[O-])c6)c(Oc6cnc7[nH]ccc7c6)c5)CC4)C3)[C@H](c3ccccc3C(C)C)C2)ccc1CC(C)C` [Example 293], the IC50 in test [1] (setting [5]) amounted to 3.2 nM; in test [2] it was 11 nM. In addition, the “Ratio of Bcl-2 G101V/WT” value in test [3] was 3.4.

For `COc1cc(CN2CCN(C3CC4(CCN(c5ccc(C(=O)NS(=O)(=O)c6ccc(NC[C@H]7CC[C@](C)(O)CC7)c([N+](=O)[O-])c6)c(Oc6cnc7[nH]ccc7c6)c5)CC4)C3)[C@H](c3ccccc3C(C)C)C2)ccc1C1CCCC1` [Example 294, 2-((1H-pyrrolo[2,3-b]pyridin-5-yl)oxy)-4-(2-((R)-4-(4-cyclopentyl-3-methoxybenzyl)-2-(2-isopropylphenyl)piperazin-1-yl)-7-azaspiro[3.5]nonan-7-yl)-N-((4-((((1r,4r)-4-hydroxy-4-methylcyclohexyl)methyl)amino)-3-nitrophenyl)sulfonyl)benzamide], the figures for the IC50 in test [1] (setting [5]) and in test [2] were 3.2 nM and 10 nM, respectively. Moreover, the “Ratio of Bcl-2 G101V/WT” value in test [3] is 3.2.

For `CNc1ccc(CN2CCN(C3CC4(C3)CN(c3ccc(C(=O)NS(=O)(=O)c5ccc(NC[C@H]6CC[C@](C)(O)CC6)c([N+](=O)[O-])c5)c(Oc5cnc6[nH]cc(F)c6c5)c3)C4)[C@H](c3ccccc3C(C)C)C2)cc1OC` [Example 358, 2-((3-fluoro-1H-pyrrolo[2,3-b]pyridin-5-yl)oxy)-N-((4-((((1r,4r)-4-hydroxy-4-methylcyclohexyl)methyl)amino)-3-nitrophenyl)sulfonyl)-4-(6-((R)-2-(2-isopropylphenyl)-4-(3-methoxy-4-(methylamino)benzyl)piperazin-1-yl)-2-azaspiro[3.3]heptan-2-yl) benzamide], the IC50 in test [1] (setting [5]) was determined as 0.1 nM; in test [1] (setting [6]), 0.1 nM; in test [2] it was 0.24 nM; in test [4], 0.11 nM. Besides, the “Ratio of Bcl-2 G101V/WT” value in test [3] came out at 2.4. Also, in test [4], the “Ratio of Bcl-2 D103Y/Bcl-2 WT” value was 1.1.

For `CC(C)c1ccccc1[C@@H]1CN(Cc2ccc(C3CCOCC3)cc2)CCN1C1CC2(C1)CN(c1ccc(C(=O)NS(=O)(=O)c3ccc(NC[C@H]4CC[C@](C)(O)CC4)c([N+](=O)[O-])c3)c(Oc3cnc4[nH]cc(F)c4c3)c1)C2` [Example 370, 2-((3-fluoro-1H-pyrrolo[2,3-b]pyridin-5-yl)oxy)-N-((4-((((1r,4r)-4-hydroxy-4-methylcyclohexyl)methyl)amino)-3-nitrophenyl)sulfonyl)-4-(6-((R)-2-(2-isopropylphenyl)-4-(4-(tetrahydro-2H-pyran-4-yl)benzyl)piperazin-1-yl)-2-azaspiro[3.3]heptan-2-yl) benzamide], the values for the IC50 in test [1] (setting [5]) and in test [2] were 0.18 nM and 0.67 nM, respectively. The “Ratio of Bcl-2 G101V/WT” value in test [3] was found to be 3.7.
